Key:
WBM cells = assay: Homing of CDFA-labeled WBM to the BM niche; type: in vivo, mouse; conditions: twelve hours post-transplantation, p=0.83
mouse ES cells = assay: ES cell hematopoietic differentiation assays (M3434 methylcellulose and OP9 colony assays); type: cell-based
Description: ES cell hematopoietic differentiation assays were performed as previously described. […] M3434 methylcellulose colony forming and OP9 colony assays were conducted on day 6 and analyzed at […], respectively. Colony type was identified by morphological analysis; duplicate chemical exposures were averaged to determine the reported colony number (n=3 replicates minimum).

repopulating HSCs = assay: Limiting dilution competitive transplantation; type: in vivo, mouse
Description: Zhang & Lodish, 103 Blood 2513-21 (2004). WBM (CD45.1) exposed to dmPGE2 ex vivo was mixed independently at varying doses with a fixed number of untreated competitor cells (CD45.1/CD45.2) and injected into congenic recipient mice (CD45.2). Peripheral blood was obtained at six, twelve, and twenty-four weeks post-transplantation and examined by FACS to determine the contribution of treated-test cells to hematopoietic repopulation (FIGS. 9E-9J). Positive reconstitution was defined as test cell multilineage chimerism >5% (FIGS. 9F, H, I). […] At six weeks, the calculated frequency of engrafting cells per 10^6 WBM cells was enhanced 3.3-fold (p=0.005) in the recipients of dmPGE2-treated WBM, and the frequency of short-term repopulating HSCs was 4-fold (p=0.002) higher at twelve weeks post-transplant (FIG. 8E, 8F, FIG. 9G). At twenty-four weeks, the frequency of long-term repopulating HSCs was 2.3-fold enhanced (p=0.05) in recipients of dmPGE2-treated cells (FIG. 8F, FIG. 9J). […] No decline in the contribution of dmPGE2-treated HSCs to hematopoiesis was observed.
WBM from CD45.1 C57Bl/6 mice was incubated with dmPGE2 or EtOH control ex vivo as described. Treated-test cells were independently transplanted into irradiated CD45.2 recipients (n=5/variable×2) with untreated CD45.1/CD45.2 competitor at the following ratios: 15,000:200,000 (0.075:1), 50,000:200,000 (0.25:1), 200,000:200,000 (1:1), 2,000,000:200,000 (10:1). Peripheral blood (PB) was obtained at six, twelve, and twenty-four weeks post-transplantation, and white blood cells were FACS-analyzed to determine test reconstitution for each series of treatment populations. Frequency of PB chimerism >5% was used to calculate the number of repopulating cells using the L-Calc program (Stem Cell Technologies). For twelve-week and twenty-four-week PB samples, multilineage reconstitution was measured by FACS analysis as above.

runx1/cmyb+ AGM HSCs = assay: Morpholino knockdown and dmPGE2 rescue of AGM HSCs; type: in vivo, zebrafish
Description: PGE2 signals through several receptors, EP1-4, all of which are present in the zebrafish genome. Cha et al., 20 Genet. Devel.
For rescue experiments, 3-somite stage MO-injected embryos were exposed to 10 μM dmPGE2.

[1] = system: peripheral blood and bone marrow WBC; assay: 5-Fluorouracil bone marrow injury; type: in vivo, mouse
Description: Mice were treated with 5-FU (150 mg/kg) as described. Venezia et al., 2004. […] Peripheral blood was obtained on day seven and day fourteen, quantified and subjected to multilineage FACS analysis using antibodies (eBioscience) to B220/IgM (B-lymphoid), CD4/8 (T-lymphoid), Mac1/Gr1 (myeloid), Ter119/CD71 (erythroid) and ckit/sca1 (stem/progenitor). Mice were sacrificed on day 16, and bone marrow was isolated, quantified and analyzed by FACS.

[2] = system: CFU-S from murine bone marrow cells; assay: Murine colony-forming units-spleen (CFU-S); type: in vivo, mouse
Description: Two independent BM samples were treated (n=5/treatment×2 replicates) for each variable. Recipient mice were lethally irradiated with a split dose of 10 Gy. 6×10^4 unfractionated dmPGE2 or control-treated BM cells were injected retro-orbitally into irradiated recipient mice. Spleens were dissected on day eight or twelve, weighed and fixed with Bouin's solution; hematopoietic colonies per spleen were counted. 1×10^5 cells/recipient were transplanted after treatment with the cox inhibitors. FACS sorted ckit^+sca1^+lineage^− BM cells were treated as above and transplanted at a dose of either 100 cells/recipient or 300 cells/recipient.

vasculature (flk1) = conditions: zebrafish embryos, 36 hpf
Description: Wild-type age-matched embryos were arrayed into 48-well plates (˜5 embryos/well) of individual test compounds and exposed from 3-somites until 36 hpf. Three compound libraries were utilized: NINDS Custom Collection (1040), SpecPlus Collection (960) and BIOMOL ICCB Known Bioactives (480). […] In situ hybridization for runx1 and cmyb was performed to assess HSCs. Compounds were retested at 10 μM, 20 μM, and 50 μM. Stem cell specificity was assessed using flk1 at 36 hpf. PGE2, PGI2, dmPGE2 and all cox inhibitors (Sigma) were used at 10 μM to 20 μM.

**Q.** Which “homing to the BM niche vs control” value (WBM cells) does the source give for `CCCCC(C)(C)[C@H](O)/C=C/[C@H]1[C@H](O)CC(=O)[C@@H]1C/C=C\CCCC(=O)O` [dmPGE2, 16,16-dimethyl-PGE2] here?
**A.** no significant difference

**Q.** What about the “OP9, definitive erythroid (dE) and granulocyte/monocyte (GM) colonies” value (mouse ES cells; 10 μM and 20 μM) of the same molecule?
**A.** increased in a dose-dependent manner

**Q.** What about the “toxicity to ES cells” value (mouse ES cells; 100 μM) of the same molecule?
**A.** toxic

**Q.** What about the “number of multipotent GEMM colonies, enhancement” value (mouse ES cells; dmPGE2 10 μM, 20 μM, methylcellulose) of the same molecule?
**A.** 2.9 fold

**Q.** And the “rescue of indomethacin inhibition of colony formation” value (mouse ES cells; dmPGE2 10 μM, indomethacin 100 μM, methylcellulose and OP9)?
**A.** rescued

**Q.** What about the “Mean % CD45.1 chimerism (±SD)” value (repopulating HSCs; 6 wk, test cell dose 15000, competitor 200000) of the same molecule?
**A.** 16.9 ± 19.5%

**Q.** What about the “Animals with >5% CD45.1” value (repopulating HSCs; 6 wk, test cell dose 15000, competitor 200000, 10 analyzed) of the same molecule?
**A.** 7

**Q.** And the “Mean % CD45.1 chimerism (±SD)” value (repopulating HSCs; 6 wk, test cell dose 50000, competitor 200000)?
**A.** 22.7 ± 24.2%

**Q.** And the “Animals with >5% CD45.1” value (repopulating HSCs; 6 wk, test cell dose 50000, competitor 200000, 10 analyzed)?
**A.** 8

**Q.** What about the “Mean % CD45.1 chimerism (±SD)” value (repopulating HSCs; 6 wk, test cell dose 200000, competitor 200000) of the same molecule?
**A.** 41.9 ± 17.2%

**Q.** And the “Animals with >5% CD45.1” value (repopulating HSCs; 6 wk, test cell dose 200000, competitor 200000, 10 analyzed)?
**A.** 10

**Q.** And the “Mean % CD45.1 chimerism (±SD)” value (repopulating HSCs; 6 wk, test cell dose 2000000, competitor 200000)?
**A.** 85.1 ± 3.1%

**Q.** What about the “Animals with >5% CD45.1” value (repopulating HSCs; 6 wk, test cell dose 2000000, competitor 200000, 10 analyzed) of the same molecule?
**A.** 10

**Q.** What about the “Mean % CD45.1 chimerism (±SD)” value (repopulating HSCs; 12 wk, test cell dose 15000, competitor 200000) of the same molecule?
**A.** 15.1 ± 22.2%

**Q.** What about the “Animals with >5% CD45.1” value (repopulating HSCs; 12 wk, test cell dose 15000, competitor 200000, 10 analyzed) of the same molecule?
**A.** 5

**Q.** What about the “Mean % CD45.1 chimerism (±SD)” value (repopulating HSCs; 12 wk, test cell dose 50000, competitor 200000) of the same molecule?
**A.** 18.1 ± 22.2%

**Q.** And the “Animals with >5% CD45.1” value (repopulating HSCs; 12 wk, test cell dose 50000, competitor 200000, 10 analyzed)?
**A.** 8

**Q.** And the “Mean % CD45.1 chimerism (±SD)” value (repopulating HSCs; 12 wk, test cell dose 200000, competitor 200000)?
**A.** 40.8 ± 28.7%

**Q.** And the “Animals with >5% CD45.1” value (repopulating HSCs; 12 wk, test cell dose 200000, competitor 200000, 10 analyzed)?
**A.** 10

**Q.** What about the “Mean % CD45.1 chimerism (±SD)” value (repopulating HSCs; 12 wk, test cell dose 2000000, competitor 200000) of the same molecule?
**A.** 87.8 ± 4.0%

**Q.** What about the “Animals with >5% CD45.1” value (repopulating HSCs; 12 wk, test cell dose 2000000, competitor 200000, 10 analyzed) of the same molecule?
**A.** 10

**Q.** What about the “Mean % CD45.1 chimerism (±SD)” value (repopulating HSCs; 24 wk, test cell dose 15000, competitor 200000) of the same molecule?
**A.** 10.2 ± 10.3%

**Q.** And the “Animals with >5% CD45.1” value (repopulating HSCs; 24 wk, test cell dose 15000, competitor 200000, 9 analyzed)?
**A.** 4

**Q.** And the “Mean % CD45.1 chimerism (±SD)” value (repopulating HSCs; 24 wk, test cell dose 50000, competitor 200000)?
**A.** 14.3 ± 16.6%

**Q.** And the “Animals with >5% CD45.1” value (repopulating HSCs; 24 wk, test cell dose 50000, competitor 200000, 10 analyzed)?
**A.** 7

**Q.** And the “Mean % CD45.1 chimerism (±SD)” value (repopulating HSCs; 24 wk, test cell dose 200000, competitor 200000)?
**A.** 39.1 ± 31.0%

**Q.** What about the “Animals with >5% CD45.1” value (repopulating HSCs; 24 wk, test cell dose 200000, competitor 200000, 10 analyzed) of the same molecule?
**A.** 10

**Q.** What about the “Mean % CD45.1 chimerism (±SD)” value (repopulating HSCs; 24 wk, test cell dose 2000000, competitor 200000) of the same molecule?
**A.** 90.7 ± 4.0%

**Q.** And the “Animals with >5% CD45.1” value (repopulating HSCs; 24 wk, test cell dose 2000000, competitor 200000, 10 analyzed)?
**A.** 10

**Q.** And the “calculated frequency of engrafting cells per 10^6 WBM cells, enhancement vs control” value (repopulating HSCs; six weeks post-transplant, Poisson statistics)?
**A.** 3.3 fold

**Q.** What about the “frequency of short-term repopulating HSCs, higher vs control” value (repopulating HSCs; twelve weeks post-transplant, Poisson statistics) of the same molecule?
**A.** 4 fold

**Q.** And the “lineage character of reconstitution in recipients” value (repopulating HSCs; twelve- and twenty-four-week analyses)?
**A.** multilineage

**Q.** And the “frequency of long-term repopulating HSCs, enhancement vs control” value (repopulating HSCs; twenty-four weeks post-transplant, Poisson statistics)?
**A.** 2.3 fold

**Q.** And the “contribution of treated HSCs to hematopoiesis over time” value (repopulating HSCs; up to twenty-four weeks)?
**A.** No decline

**Q.** And the “rescue of HSCs in cox1 MO embryos (# rescued/# scored)” value (runx1/cmyb+ AGM HSCs; 10 μM dmPGE2)?
**A.** 29/52

**Q.** And the “rescue of HSCs in cox2 MO embryos (# rescued/# scored)” value (runx1/cmyb+ AGM HSCs; 10 μM dmPGE2)?
**A.** 43/60

**Q.** What about the “rescue of HSCs in PGE2 synthase MO embryos (# rescued/# scored)” value (runx1/cmyb+ AGM HSCs; dmPGE2 addition) of the same molecule?
**A.** 25/45

**Q.** What about the “reversal of diminished runx1/cmyb expression in EP2 and EP4 MO embryos” value (runx1/cmyb+ AGM HSCs; exogenous dmPGE2) of the same molecule?
**A.** not reversed

**Q.** What about the “BM recovery following 5FU treatment” value ([1]; administration after 5FU) of the same molecule?
**A.** significantly enhanced BM recovery

**Q.** What about the “peripheral blood (day 14) and bone marrow (day 16) WBC counts after 5-FU injury” value ([1]; in vivo exposure, IP, 1 mg/kg) of the same molecule?
**A.** enhanced WBC counts

**Q.** And the “splenic weight and CFU-S12 in recipients of treated KSL cells” value ([2]; KSL BM cells, 100 or 300 cells per recipient)?
**A.** significantly increased

**Q.** And the “CFU-S12 Colony Number” value ([2]; Kit+Sca+Lin−, 100 cells transplanted, EtOH 3.0 (1.4))?
**A.** 6.2 (1.2)

**Q.** And the “CFU-S12 Colony Number” value ([2]; Kit+Sca+Lin−, 300 cells transplanted, EtOH 5.0 (1.1))?
**A.** 11.0 (1.7)

**Q.** What about the CFU-S8 colonies ([2]; WBM ex vivo 1 μM/10^6 cells) of the same molecule?
**A.** enhanced

**Q.** And the “number of CFU-S12, increase” value ([2]; WBM ex vivo 1 μM/10^6 cells, 6×10^4 cells transplanted)?
**A.** three-fold

**Q.** What about the “CFU-S12 Colony Number” value ([2]; Whole Marrow, 6000 cells transplanted, 1 μM/10^6 cells ex vivo, day twelve, EtOH 5.8 (2.6)) of the same molecule?
**A.** 15.2 (2.2)

**Q.** What about the “effect on vasculature / flk1 staining (in words)” value (vasculature (flk1)) of the same molecule?
**A.** minimal effects on the vasculature

— patent US10272110B2, “Methods for promoting HSC engraftment” (CHILDREN'S MEDICAL CENTER CORPORATION, priority 2006, dated 2019)
